# Results published in ChEMBL document CHEMBL1201862, “PubChem BioAssay data set” (2004).
#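 Method: 48-hour compound exposure of cells in 96-well plates, five concentrations, linear interpolation of endpoints. At the GI50, growth is halved.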 Active and inactive are the calls of the source. Cut-off read from the data, not from the text of the source: active = GI50 up to about 1.1 µM and inactive = higher.
# Experiments:
# Test in all cases: inhibition of tumour cell growth, NCI panel, 48 h
# OVCAR-8 = tested on: OVCAR-8
# LOX IMVI = tested on: LOX IMVI
# SF-268 = tested on: SF-268
# CAKI-1 = tested on: CAKI-1
# PC-3 = tested on: PC-3
# UO-31 = tested on: UO-31
# NCI-H226 = tested on: NCI-H226
# Hs-578T = tested on: Hs-578T
# SNB-75 = tested on: SNB-75
# EKVX = tested on: EKVX
# SK-MEL-5 = tested on: SK-MEL-5
# HL-60 = tested on: HL-60
# IGROV-1 = tested on: IGROV-1
# COLO 205 = tested on: COLO 205
# RXF 393 = tested on: RXF 393
# TK-10 = tested on: TK-10
# UACC-62 = tested on: UACC-62
# HCC 2998 = tested on: HCC 2998
# RPMI-8226 = tested on: RPMI-8226
SMILES,GI50 (OVCAR-8),GI50 (LOX IMVI),GI50 (SF-268),GI50 (CAKI-1),GI50 (PC-3),GI50 (UO-31),GI50 (NCI-H226),GI50 (Hs-578T),GI50 (SNB-75),GI50 (EKVX),GI50 (SK-MEL-5),GI50 (HL-60),GI50 (IGROV-1),GI50 (COLO 205),GI50 (RXF 393),GI50 (TK-10),GI50 (UACC-62),GI50 (HCC 2998),GI50 (RPMI-8226)
CCCS(=O)(=O)Nc1ccc(Nc2c3ccccc3nc3ccccc23)c(OC)c1,1.2 µM (inactive),0.315 µM (active),0.853 µM (active),0.4 µM (active),3.88 µM (inactive),1.08 µM (active),1.46 µM (inactive),3.16 µM (inactive),1.04 µM (active),12.7 µM (inactive),2 µM (inactive),0.126 µM (active),1.31 µM (inactive),2.16 µM (inactive),5.19 µM (inactive),3.78 µM (inactive),0.695 µM (active),2.1 µM (inactive),
Cc1c(/N=N/c2ccccc2)c(-c2ccccc2)n(C2OC(CO)C(O)C(O)C2O)c(=S)c1C#N (stereo not drawn),3.99 µM (inactive),2.62 µM (inactive),8.38 µM (inactive),,2.99 µM (inactive),7.74 µM (inactive),10.8 µM (inactive),2.86 µM (inactive),2.72 µM (inactive),13.8 µM (inactive),2.33 µM (inactive),3.66 µM (inactive),5.75 µM (inactive),5.56 µM (inactive),2.5 µM (inactive),9.29 µM (inactive),3.6 µM (inactive),5.3 µM (inactive),4.06 µM (inactive)
N#Cc1cc(C#N)c(Cl)nc1N,> 10 µM (inactive),> 10 µM (inactive),> 10 µM (inactive),,> 10 µM (inactive),0.0323 µM (active),> 10 µM (inactive),> 10 µM (inactive),> 10 µM (inactive),> 10 µM (inactive),> 10 µM (inactive),3.48 µM (inactive),> 10 µM (inactive),> 10 µM (inactive),> 10 µM (inactive),> 10 µM (inactive),> 10 µM (inactive),> 10 µM (inactive),> 10 µM (inactive)
Cn1c(=O)c2c(n(C)c1=O)n1c(=O)c3ccccc3nc1n2C,97.9 µM (inactive),83.9 µM (inactive),72.3 µM (inactive),> 100 µM (inactive),> 100 µM (inactive),> 100 µM (inactive),30.7 µM (inactive),59.4 µM (inactive),39.4 µM (inactive),> 100 µM (inactive),> 100 µM (inactive),,> 100 µM (inactive),> 100 µM (inactive),> 100 µM (inactive),> 100 µM (inactive),46.9 µM (inactive),> 100 µM (inactive),> 100 µM (inactive)
COc1cc(C(O)c2ccc3c(c2)OCO3)cc(OC)c1OC (stereo not drawn),> 100 µM (inactive),> 100 µM (inactive),> 100 µM (inactive),> 100 µM (inactive),> 100 µM (inactive),61.2 µM (inactive),> 100 µM (inactive),> 100 µM (inactive),73.5 µM (inactive),> 100 µM (inactive),80.2 µM (inactive),> 100 µM (inactive),> 100 µM (inactive),> 100 µM (inactive),,> 100 µM (inactive),> 100 µM (inactive),> 100 µM (inactive),> 100 µM (inactive)
COc1cc2c(cc1Cc1c(F)cccc1Cl)nc(-c1c(F)cccc1Cl)n2Cc1c(F)cccc1Cl,36.3 µM (inactive),,58.9 µM (inactive),6.07 µM (inactive),10.7 µM (inactive),48.4 µM (inactive),34 µM (inactive),21.3 µM (inactive),24.7 µM (inactive),12.6 µM (inactive),13.5 µM (inactive),78.5 µM (inactive),32.4 µM (inactive),44.8 µM (inactive),77.3 µM (inactive),> 100 µM (inactive),56.4 µM (inactive),17.5 µM (inactive),13.7 µM (inactive)
